The source of these data is patent US10183062B2, “Treatment for cancer” (The University of Nottingham, priority 2013, dated 2019).

Structures are written as SMILES.

Series [1] has as its system HCT116 tumours. Description: Mouse xenograft tumour growth delay (CDEPT). Type of series: in vivo, NMRI nu/nu mice. The note with it: prodrug alone, 15 mg/kg i.p., 5 consecutive days. Here is the method: Human colorectal HCT116 carcinoma cells were grown in DMEM medium supplemented with 10% FBS, trypsinized and injected subcutaneously in 100 μl PBS/ . . . % matrigel at a concentration of 5.10^6 cells in the abdominal flank of adult NMRI nu/nu mice. As soon as tumours were palpable, tumour volumes were determined three times per week by measuring three orthogonal diameters using calipers. Volumes were calculated according to the formula V=A×B×C×/6. All experiments were conducted in accordance with local institutional guidelines of the University of Leuven, approved by the animal ethics committee and procedures were according to the guidelines defined by the UKCCCR (12). […] Tumour growth delay was determined for each individual tumour within the different groups as the time necessary to reach three times their initial volume at the start of the treatment. […]
Since strains E1 and N1 express stably-integrated NTR under the regulatory control of a strong promoter without inclusion of any antibiotic resistance gene, it was next determined whether administration of these clinically-applicable strains in combination with prodrug administration to tumour-bearing animals would result in anti-tumour efficacy. It was first evaluated whether inactivation of pyrE affected the tumour-colonizing capacity of systemically administered spores. […]

Series [2] has as its target NmeNTR, Neisseria meningitidis MC58 nitroreductase (NfnB homolog, Q9K022), wild type, SEQ ID NO: 1 (Neisseria meningitidis, UniProt Q9K022). The experiment in a line: CB1954 nitroreductase activity, HPLC, purified His-tagged NmeNTR. It is filed as biochemical. The note with it: CB1954, cofactor NADH; 37° C., pH 7.0. An excerpt: Genes encoding homologs of E. coli NfnB and Bacillus amyloliquefaciens YwrO from several bacteria were cloned into an E. coli expression vector for screening (see Methods below). These were the NfnB homolog from Neisseria meningitidis MC58 (‘NmeNTR’, accession number Q9K022), the NfnB homolog from Haemophilus somnus 129PT (‘HsoNTR’, accession number ZP_00122352.1), the NfnB homolog from Burkholderia fungorum LB400 (‘BfuNTR’, accession number ZP_00029570.1), the YwrO homolog from Vibrio cholerae (‘VchYwrO’, accession number Q9KNX3), the YwrO homolog from Rhodobacter sphaeroides (‘RspYwrO’, accession number ZP_00007082.1), and two YwrO homologs from Pseudomonas aeruginosa (‘PaeYwrO1’, accession number Q9HUJ0; and ‘PaeYwrO2’, accession number Q9I4B3).
For determination of CB1954 nitroreductase kinetic parameters, six-histidine affinity-tagged enzymes were purified from cell lysates purified using a Novagen His-Bind kit in accordance with the manufacturer's instructions.
CB1954 nitroreductase activity was determined essentially as described by Anlezark (6). Reaction mixtures containing 500 μM NADH or NADPH and a small quantity of enzyme (either crude lysate or purified enzyme) were assembled in pre-warmed (to 37° C.) 100 mM sodium phosphate buffer (pH 7.0), and started with the addition of 100 μM CB1954 and prompt mixing.
To determine initial reaction rates during preliminary screening of CB1954 nitroreductase candidates, aliquots of the reaction mixtures taken at various times were injected into a Partisphere SCX (100×4.7 mm) HPLC column and eluted isocratically at 2 ml/min with 130 mM NaH2PO4 (pH 5.0). Eluates were continuously monitored at 260 nm and 325 nm, and the absorbance spectra of eluting components recorded using a photodiode array detector. Peaks were identified with reference to standards and/or by their known absorbance spectra (7) and anticipated column retention times as appropriate. Rates were determined based on the decrease in the area under the CB1954 peak over time, normalised to the known starting concentration of 100 μM using the peak from the zero timepoint sample.
To determine initial reaction rates and CB1954 nitroreduction products in later experiments with purified proteins, peaks were identified as before, and rates were determined based on the increase in the area under the 4-hydroxylamine derivative peak over time, normalised using enzymatically-synthesised 4-hydroxylamine standards.
NmeNTR and HsoNTR were each affinity-tagged, over-expressed, purified, and the CB1954 nitroreductase activities of the purified proteins characterized using the HPLC assay. The reaction products and kinetic parameters of these enzymes with respect to CB1954 and NADH were determined (Table 1). […] Moreover, the kinetic parameters of HsoNTR and NmeNTR differ dramatically from those of E. coli NfnB and other published enzymes (Table 1). […] NmeNTR would therefore approach saturation with CB1954 in a therapeutic regime using the maximum clinically-recommended dose, so the prodrug would be efficiently activated and high levels of tumour-specific cytotoxicity achieved.

The test system of series [3] is HCT116 tumours. The experiment in a line: Mouse xenograft tumour growth delay with CB1954. Type of series: in vivo, NMRI nu/nu mice (human colorectal HCT116 carcinoma). The method, then: Human colorectal HCT116 carcinoma cells were grown in DMEM medium supplemented with 10% FBS, trypsinized and injected subcutaneously in 100 μl PBS/ . . . % matrigel at a concentration of 5.10^6 cells in the abdominal flank of adult NMRI nu/nu mice. As soon as tumours were palpable, tumour volumes were determined three times per week by measuring three orthogonal diameters using calipers. Volumes were calculated according to the formula V=A×B×C×/6. All experiments were conducted in accordance with local institutional guidelines of the University of Leuven, approved by the animal ethics committee and procedures were according to the guidelines defined by the UKCCCR (12). Treatment was initiated when tumours reached a volume of ˜250 mm^3. Five days post spore injection (5.10^7 cfu/100 μl), sham or prodrug treatment was started. CB1954 was prepared as described previously (13) and administered intraperitoneally (i.p.) at a concentration of 15 mg/kg for five consecutive days. At the end of the follow-up period, tumours and normal tissues were excised, ground and serially diluted to determine colonization levels (14). Tumour growth delay was determined for each individual tumour within the different groups as the time necessary to reach three times their initial volume at the start of the treatment. One-way ANOVA with a Tukey's posttest was used to determine statistical significance between the different growth curves.
Since strains E1 and N1 express stably-integrated NTR under the regulatory control of a strong promoter without inclusion of any antibiotic resistance gene, it was next determined whether administration of these clinically-applicable strains in combination with prodrug administration to tumour-bearing animals would result in anti-tumour efficacy. It was first evaluated whether inactivation of pyrE affected the tumour-colonizing capacity of systemically administered spores. Mice bearing subcutaneously transplanted HCT116 tumours were injected and tumour colonization tested seven days later. […] On average 10^9 cfu were found per gram of tumour tissue. Colonization was also confirmed by gram staining. In tumours, C. sporogenes vegetative cells are visible as purple, gram-positive rods (FIG. 3 C). As expected, C. sporogenes vegetative cells could not be detected in any of the normal tissues investigated. […] Spores were collected, quantified and intravenously administered at a concentration of 5.10×10^7 per animal when tumours reached a volume of ˜250 mm^3, followed five days later by sham or prodrug administration. […] In all cases, strain specific signals could be detected thereby confirming stability of the integrated construct.
(In general: In xenograft studies the graft and the host belong to different species.)

In series [4] the test system is HinNTR, NTR from Haemophilus influenzae. The following applies: Theys et al., 2006, cited from earlier work.
The conditions of series [5]: cited from earlier work.

Sequence of NmeNTR, Neisseria meningitidis MC58 nitroreductase (NfnB homolog, Q9K022), wild type, SEQ ID NO: 1 (Q9K022 entry or part of it): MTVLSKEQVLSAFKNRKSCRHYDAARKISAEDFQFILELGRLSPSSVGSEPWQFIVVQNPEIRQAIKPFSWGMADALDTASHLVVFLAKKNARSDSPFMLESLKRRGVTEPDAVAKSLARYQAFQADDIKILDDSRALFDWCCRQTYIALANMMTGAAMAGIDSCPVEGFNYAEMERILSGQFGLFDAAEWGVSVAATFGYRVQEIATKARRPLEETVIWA

Turning to `NC(=O)c1cc(N2CC2)c([N+](=O)[O-])cc1[N+](=O)[O-]` [CB1954, 5-(aziridin-1-yl)-2,4-dinitrobenzamide], in the series with HCT116 tumours [1], the tumour growth delay entry is “did not result in any effect”. For the same compound, the Kcat in series [2] is listed as 4.04 (NADH) S^−1; in series [4] (CB1954), 56.2 S^−1. The “tumours completely disappeared, E1/CB1954 group” value in the series with HCT116 tumours [3] (CB1954 15 mg/kg i.p. x 5 days + E1 (E. coli NfnB) spores) was “two out of 16”. Moreover, the “tumours completely disappeared, N1/CB1954 group” value in the series with HCT116 tumours [3] (CB1954 15 mg/kg i.p. x 5 days + N1 (NmeNTR) spores) is “four out of 16”. Further, the “tumour growth delay, pyrE mutant spores alone or with CB1954” value in the series with HCT116 tumours [3] (CB1954 15 mg/kg i.p. x 5 days, pyrE mutant spores) is recorded as “small growth delay”. In the series with HCT116 tumours [3] (CB1954 15 mg/kg i.p. x 5 days, E1 (NfnB) or N1 (NmeNTR) C. sporogenes spores, most pronounced for N1 (p<0.001, one way ANOVA)), the “tumour growth delay, E1 or N1 with CB1954” value was “significant growth delay”. For the same compound, the Km in series [4] (read-out: Km^CB1954) is 690 µM. The “maximum concentration which can be safely achieved in patient serum” value in series [5] (in vivo) was 6.3 µM. The “peak concentrations in patient sera” value in series [5] (safe doses) is 1 to 10 µM.

The Km is the concentration of substrate that gives half-maximal velocity.
